Patent US7919508B2, “3-piperidinylisochroman-5-ols as dopamine agonists” (Aventis Pharmaceuticals Inc., priority 2004, dated 2011)
Counter-ions that a name gives are not always drawn.

Columns and labels:
D1 receptor = target: T1, D1 receptor (Homo sapiens, UniProt P21728); assay: D1 Activation Adenylyl Cyclase Assay (cAMP FlashPlate, D1 transfected CHO cell line); type: cell-based; conditions: agonist activity at the D1 receptor, adenylate cyclase assay, D1 transfected CHO cell line; read-out: D1 EC50
T1 construct: expressed in transfected cells; host or cells: D1 transfected CHO cell line
T1 sequence (P21728 whole entry): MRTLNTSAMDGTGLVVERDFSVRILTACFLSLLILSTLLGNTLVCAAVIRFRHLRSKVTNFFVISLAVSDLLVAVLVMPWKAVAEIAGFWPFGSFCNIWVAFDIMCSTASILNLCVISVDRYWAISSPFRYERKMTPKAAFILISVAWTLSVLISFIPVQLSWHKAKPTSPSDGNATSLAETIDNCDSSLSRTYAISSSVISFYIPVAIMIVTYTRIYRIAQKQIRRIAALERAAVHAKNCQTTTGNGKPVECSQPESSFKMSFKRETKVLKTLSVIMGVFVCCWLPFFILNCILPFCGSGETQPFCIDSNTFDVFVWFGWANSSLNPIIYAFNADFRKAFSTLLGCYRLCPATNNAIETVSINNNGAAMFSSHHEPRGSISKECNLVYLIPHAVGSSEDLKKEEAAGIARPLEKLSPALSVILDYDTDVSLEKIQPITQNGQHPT
Protocol: D1 Activation Adenylyl Cyclase Assay
Purpose: To measure D1-agonist activity compounds using an Adenylyl Cyclase Activation Flash Plate Assay from NEN.
Buffers: Activation and Detection buffers are provided from NEN: Catalog # SMP004A.
Maintenance of D1 transfected CHO cell line: • 1. Cells are grown in a 150 cc flask in an incubator at 37° C. with 5% CO2 for 2-3 days (4 maximum) until confluent. • 2. Aspirate off old media (Cells adhere to the plastic flask), wash 2× with sterile PBS. • 3. Add ˜5 mL of Trypsin EDTA (enough to cover bottom of the flask) for 5 min. at RT. • 4. Stop digestion with 15 mL of Media (Ham's F12 plus 10% FBS, 1% P/S, 400 μg/mL G418). • Bang flask on counter to release them from the flask. • 5. Add 2 mL of this to 30 mL of Media in a fresh flask. Return to incubator. Preparation of Cells for Assay: • 1. Loosen the cells with 5 mL Vercine (EDTA)/flask for 10 minutes in incubator. • 2. Add 20 mL of Serum-free media/flask. Transfer to 50-mL Falcon tube. • 3. Spin down cells at 1000 RPM for 5 minutes at 4° C. • 4. Aspirate off old media and resuspend in 5 mL of Serum-free media/plate to be done. • 5. Dilute 10 μL 1/10 in 90 μL Trypan Blue solution and count with a hemocytometer. • Count (live cells only) all four areas and average them. • Count X 10^5 equals cells/mL (including accounting for dilution in Trypan). • 6. Dilute to 50,000 cells/50 μL (1,000,000 cells/mL) in Serum-free media. • 7. Put 50 μL/well in Rows 3-12 of a cAMP FlashPlate. • 8. Put in incubator at 37° C. for 2-4 hours, to allow cells to recover and attach. Adenylyl Cyclase Activation Assay: • 1. Prepare the cAMP standards: • Add 130 μL/well of stimulation buffer to each row of a separate 96-well “standard” plate, 2 columns/plate. • Dilute stock cAMP standard 1/5 with stimulation buffer (final concentration is 1000 pmol/mL). Add 130 μL of this to row A. • Make 1/2 serial dilutions by adding 130 μL from each well to the next (A-G), mixing between each. • Final concentrations are: • A: 500, B: 250, C: 125, D: 62.5, E: 31.25, F: 15.6, G: 7.8, H: 0 pmol/mL. • Place 100 μL from each row from 2 columns of the standard plate into columns 1 and 2 of each “reaction” plate. • 2. Prepare the negative and positive control in the “reaction” plate: • Column 3, rows A-D, add 100 μL stimulation buffer (negative control). • Column 3, rows E-H, add 90 μL of stimulation buffer plus 10 μL of 200 μM APO (positive control, […]). (10 μL 10 mM APO, plus 490 μL stim. buffer=1/50 dilution.) • 3. Prepare the agonist compound dilutions in the “compound” plate: • Add 80 μL of stimulation buffer to row A (One column for each compound), and 90 μL of stimulation buffer to rows B—H. • Add 20 μL of 10 mM of each compound to appropriate row A. • Make 1/10 serial dilutions by adding 10 μL from each well to the next (A-H), mixing between each. • 4. […]. Prepare Detection/Stop buffer by adding 90 μL/plate of cAMP-^125I to 10 mL/plate plus 6 mL (for dead volume) of detection buffer. Steps 6-8 performed with the Multi-Mek. • 6. Add 50 μL to each well of the FlashPlate with CHO cells set up earlier. • 7. Incubate at RT for 8 minutes. • 8. Stop reaction by adding 100 μL of detection/stop buffer to each well. • 9. Cover with plastic film and incubate at RT for 16-24 hours (don't wait more than 24 hours). • 10. Count in a Packard Top-Count. Calculations: • 1. Raw signals generated by cAMP standard wells, without cells, are averaged at each cAMP concentration and converted to % B/Bo by dividing the raw signal at each cAMP concentration by the raw signal with no cAMP added. • 2. These values are used to generate a standard curve by plotting cAMP concentration versus % B/Bo. • 3. Raw data for each compound at each concentration is also converted to % B/B. by the same method. • 4. These values are then converted to pmol cAMP/mL using the standard curve. • 5. These cAMP values are then averaged across the three replicates for each compound concentration. • 6. […]

[1] = target: T2, human dopamine D1 receptor (Homo sapiens, UniProt P21728); assay: [3H]-SCH-23390 binding to cloned human dopamine D1 receptors (CHO cell membranes); conditions: competitive binding, [3H]-SCH-23390, cloned human D1 in CHO membranes; read-out: D1 affinity Ki
T2 construct: A 1.4 Kb Hind III to Xho I fragment was subcloned into the vector pMMLV; expressed in transfected cells; host or cells: CHO cells, clone CHO-D1M#9 (plasmid pHD1MMLV), membranes
T2 sequence (P21728 whole entry, the tested form may be a part): as the sequence (P21728 whole entry) above

| EC50 (D1 receptor) [nM] | Ki [1] [nM] | Compound |
| --- | --- | --- |
| 11 | 126 | Cc1ccc(C(=O)NC(C)CCN2CCC([C@@H]3Cc4c(ccc(C)c4O)[C@H](CN)O3)CC2)cc1 (stereo partly drawn) [Example 15, N-{3-[4-((1R,3S)-1-Aminomethyl-5-hydroxy-6-methyl-isochroman-3-yl)-piperidin-1-yl]-1-methyl-propyl}-4-methyl-benzamide dihydrochloride] |
| 59 | 91.8 | Cc1ccc2c(c1O)C[C@@H](C1CCN(CCC(C)NC(=O)c3ccc(Br)cc3)CC1)O[C@H]2CN (stereo partly drawn) [Example 23, N-{3-[4-((1R,3S)-1-Aminomethyl-5-hydroxy-6-methyl-isochroman-3-yl)-piperidin-1-yl]-1-methyl-propyl}-4-bromo-benzamide dihydrochloride] |
| 280 |  | Cc1ccc2c(c1O)C[C@@H](C1CCN(CCC(C)c3ccccc3)CC1)O[C@H]2CN (stereo partly drawn) [Example 27, (1R,3S)-1-Aminomethyl-6-methyl-3-[1-(3-phenyl-butyl)-piperidin-4-yl]-isochroman-5-ol dihydrobromide] |
| 45 | 153 | Cc1ccc2c(c1O)C[C@@H](C1CCN(Cc3ccncc3)CC1)O[C@H]2CN [Example 54, (1R,3S)-1-Aminomethyl-6-methyl-3-(1-pyridin-4-ylmethyl-piperidin-4-yl)-isochroman-5-ol dihydrochloride] |
| 10 | 52 | Cc1ccc2c(c1O)C[C@@H](C1CCN(Cc3ccc(Cl)cc3)CC1)O[C@H]2CN [Example 58, (1R,3S)-1-Aminomethyl-3-[1-(4-chloro-benzyl)-piperidin-4-yl]-6-methyl-isochroman-5-ol dihydrochloride] |
| 47 | 19.8 | COc1ccc(CN2CCC([C@@H]3Cc4c(ccc(C)c4O)[C@H](CN)O3)CC2)cc1 [Example 61, (1R,3S)-1-Aminomethyl-3-[1-(4-methoxy-benzyl)-piperidin-4-yl]-6-methyl-isochroman-5-ol dihydrochloride] |
| 14 | 46.1 | Cc1ccc2c(c1O)C[C@@H](C1CCN(Cc3ccc(O)cc3)CC1)O[C@H]2CN [Example 62, (1R,3S)-1-Aminomethyl-3-[1-(4-hydroxy-benzyl)-piperidin-4-yl]-6-methyl-isochroman-5-ol dihydrochloride] |
| 9 | 6.8 | Cc1ccc2c(c1O)C[C@@H](C1CCN(Cc3ccc(F)c(F)c3)CC1)O[C@H]2CN [Example 63, (1R,3S)-1-Aminomethyl-3-[1-(3,4-difluoro-benzyl)-piperidin-4-yl]-6-methyl-isochroman-5-ol dihydrochloride] |
| 6 | 75.7 | Cc1ccc(CN2CCC([C@@H]3Cc4c(ccc(C)c4O)[C@H](CN)O3)CC2)cc1 [Example 66, (1R,3S)-1-Aminomethyl-6-methyl-3-[1-(4-methyl-benzyl)-piperidin-4-yl]-isochroman-5-ol dihydrochloride] |
| 9 | 62.6 | Cc1ccc2c(c1O)C[C@@H](C1CCN(Cc3ccsc3)CC1)O[C@H]2CN [Example 67, (1R,3S)-1-Aminomethyl-6-methyl-3-(1-thiophen-3-ylmethyl-piperidin-4-yl)-isochroman-5-ol dihydrochloride] |
| 10 | 32.5 | Cc1ccc2c(c1O)C[C@@H](C1CCN(Cc3cccc(F)c3)CC1)O[C@H]2CN [Example 69, (1R,3S)-1-Aminomethyl-3-[1-(3-fluoro-benzyl)-piperidin-4-yl]-6-methyl-isochroman-5-ol dihydrochloride] |
| 77 | 19.4 | Cc1ccc2c(c1O)C[C@@H](C1CCN(Cc3ccc(C(F)(F)F)cc3F)CC1)O[C@H]2CN [Example 70, (1R,3S)-1-Aminomethyl-3-[1-(2-fluoro-4-trifluoromethyl-benzyl)-piperidin-4-yl]-6-methyl-isochroman-5-ol dihydrochloride] |
| 420 | 94.2 | Cc1ccc2c(c1O)C[C@@H](C1CCN(Cc3ccoc3)CC1)O[C@H]2CN [Example 71, (1R,3S)-1-Aminomethyl-3-(1-furan-3-ylmethyl-piperidin-4-yl)-6-methyl-isochroman-5-ol hydrochloride] |
| 45 |  | Cc1ccc2c(c1O)C[C@@H](C1CCN(Cc3ccccc3)CC1)O[C@H]2CN [Example 93, (1R,3S)-1-Aminomethyl-3-[1-(benzyl)-piperidin-4-yl]-6-methyl-isochroman-5-ol dihydrobromide] |
| 1500 | 147 | CNC[C@@H]1O[C@H](C2CCN(C)CC2)Cc2c1ccc(C)c2O [Example 102, (1R,3S)-6-Methyl-1-methylaminomethyl-3-(1-methyl-piperidin-4-yl)-isochroman-5-ol dihydrobromide] |
| 36 | 110 | Cc1ccc2c(c1O)C[C@@H](C1CCN(CCCC(c3ccc(F)cc3)c3ccc(F)cc3)CC1)O[C@H]2CN [Example 108, (1R,3S)-1-Aminomethyl-3-{1-[4,4-bis-(4-fluoro-phenyl)-butyl]-piperidin-4-yl}-6-methyl-isochroman-5-ol dihydrobromide] |
| 6 |  | Cc1ccc2c(c1O)C[C@@H](C1CCN(CCCc3ccccc3)CC1)O[C@H]2CN [Example 110, (1R,3S)-1-Aminomethyl-6-methyl-3-[1-(3-phenyl-propyl)-piperidin-4-yl]-isochroman-5-ol dihydrochloride] |
| 31000 | 45 | Cc1ccc2c(c1O)C[C@@H](C1CCN(Cc3ccc(C(F)(F)F)cc3)CC1)O[C@H]2CN(C)C [Example 168, (1R,3S)-1-Dimethylaminomethyl-6-methyl-i-3-[1-(4-trifluoromethylbenzyl)piperidin-4-yl]-isochroman-5-ol] |
| 220 | 21 | CNC[C@@H]1O[C@H](C2CCN(Cc3ccc(C(F)(F)F)cc3)CC2)Cc2c1ccc(C)c2O [Example 181, (1R,3S)-6-Methyl-1-methylaminomethyl-3-[1-(4-trifluoromethyl-benzyl)-piperidin-4-yl]-isochroman-5-ol hydrochloride] |
| 1300 | 255 | CCNC[C@@H]1O[C@H](C2CCN(Cc3ccc(C(F)(F)F)cc3)CC2)Cc2c1ccc(C)c2O [Example 182, (1R,3S)-1-Ethylaminomethyl-6-methyl-3-[1-(4-trifluoromethyl-benzyl)-piperidin-4-yl]-isochroman-5-ol] |
| 7000 | 123 | CCN(C)C[C@@H]1O[C@H](C2CCN(Cc3ccc(C(F)(F)F)cc3)CC2)Cc2c1ccc(C)c2O [Example 183, (1R,3S)-1-[(Ethyl-methyl-amino)-methyl]-6-methyl-3-[1-(4-trifluoromethyl-benzyl)-piperidin-4-yl]-isochroman-5-ol] |
